MIC data for 16 compounds are collected here from US4350692A, “3,7-Disubstituted-3-cephem-4-carboxylic acids” (Fujisawa Pharmaceutical Co., Ltd., priority 1976, dated 1982).

Converted amounts (≈) assume the structure as drawn.

For one assay, the system named is Pseudomonus aeruginosa NCTC-10490. Kind of assay: In vitro activity, two-fold agar-plate dilution method, minimal inhibitory concentration (MIC). The assay is classed as cell-based. As to conditions: 20 h, read-out: MIC (minimal inhibitory concentration).
In the case of `Cn1nnnc1SCC1=C(C(=O)O)N2C(=O)[C@@H](NC(=O)[C@H](NC(=O)c3cc(Cl)ccc3O)c3ccccc3)[C@H]2SC1` [Example 1, 7-[D-N-(2-hydroxy-5-chlorobenzoyl)-2-phenylglycinamido]-3-(1-methyl-1H-tetrazol-5-ylthiomehyl)-3-cephem-4-carboxylic acid], the MIC came to 1.56 mg/L (≈ 2.53 µM).
In the case of `Cn1nnnc1SCC1=C(C(=O)O)N2C(=O)C(NC(=O)[C@H](NC(=O)c3cc(C#N)c(Cl)cc3O)c3ccccc3)C2SC1` (stereo partly drawn) [Example 6, 7-[D-N-(2-hydroxy-4-chloro-5-cyanobenzoyl)-2-phenylglycinamido]-3-(1-methyl-1H-tetrazol-5-ylthiomethyl)-3-cephem-4-carboxylic acid], the MIC was determined as 1.56 mg/L (≈ 2.43 µM).
Still for that read-out and setting: to `Cn1nnnc1SCC1=C(C(=O)O)N2C(=O)C(NC(=O)[C@H](NC(=O)c3cc([N+](=O)[O-])cc([N+](=O)[O-])c3O)c3ccccc3)C2SC1` (stereo partly drawn) [Example 9, 7-[D-N-(2-hydroxy-3,5-dinitrobenzoyl)-2-phenylglycinamido]-3-(1-methyl-1H-tetrazol-5-ylthiomethyl)-3-cephem-4-carboxylic acid] belongs 1.56 mg/L (≈ 2.32 µM); to `Cn1nnnc1SCC1=C(C(=O)O)N2C(=O)C(NC(=O)[C@H](NC(=O)c3ccc(O)cc3O)c3ccccc3)C2SC1` (stereo partly drawn) [Example 25, 7-[D-N-(2,4-dihydroxybenzoyl)-2-phenylglycinamido]-3-(1-methyl-1H-tetrazol-5-ylthiomethyl)-3-cephem-4-carboxylic acid], 1.56 mg/L (≈ 2.61 µM); to `CN1CCN(S(=O)(=O)c2ccc(O)c(C(=O)N[C@@H](C(=O)NC3C(=O)N4C(C(=O)O)=C(CSc5nnnn5C)CSC34)c3ccccc3)c2)CC1` (stereo partly drawn) [Example 52, 7-[D-N-{2-hydroxy-5-(4-methyl-1-piperazinylsulfonyl)benzoyl}-2-phenylglycinamido]-3-(1-methyl-1H-tetrazol-5-ylthiomethyl)-3-cephem-4-carboxylic acid], 1.56 mg/L (≈ 2.1 µM).
The same measure, in the same setting: for `CCOC(=O)CS(=O)(=O)NCc1nnc(SCC2=C(C(=O)O)N3C(=O)C(NC(=O)[C@H](NC(=O)c4cc(Cl)cc(Cl)c4O)c4ccccc4)C3SC2)s1` (stereo partly drawn) [Example 53, 7-[D-N-(2-hydroxy-3,5-dichlorobenzoyl)-2-phenylglycinamido]-3-(5-ethoxycarbonylmesylaminomethyl-1,3,4-thiadiazol-2-ylthiomethyl)-3-cephem-4-carboxylic acid] the value was 1.56 mg/L (≈ 1.88 µM); for `CC(=O)OCC1=C(C(=O)O)N2C(=O)[C@@H](NC(=O)[C@H](NC(=O)COc3ccc(Cl)cc3C(=O)c3ccccc3)c3ccccc3)[C@H]2SC1` [Example 67, 7-[D-N-{2-(2-benzoyl-4-chlorophenoxy)acetyl}-2-phenylglycinamido]cephalosporanic acid], 1.56 mg/L (≈ 2.3 µM).

Still in this assay, the particulars now being: heart infusion agar (HI-agar); overnight culture in Trypticase-soy broth (10^8 viable cells per ml.); incubation at 37° C. for 20 hours; read-out: MIC (minimal inhibitory concentration).
Turning to `Cn1nnnc1SCC1=C(C(=O)O)N2C(=O)C(NC(=O)[C@H](NC(=O)c3cc(Cl)cc(Cl)c3O)c3ccccc3)C2SC1` (stereo partly drawn) [Example 2, 7-[D-N-(2-hydroxy-3,5-dichlorobenzoyl)-2-phenylglycinamido]-3-(1-methyl-1H-tetrazol-5-ylthiomethyl)-3-cephem-4-carboxylic acid], the MIC came to 0.78 mg/L (≈ 1.2 µM).
On the same count and under the same terms, for `Cn1nnnc1SCC1=C(C(=O)O)N2C(=O)C(NC(=O)[C@H](NC(=O)c3cc([N+](=O)[O-])ccc3O)c3ccccc3)C2SC1` (stereo partly drawn) [Example 3, 7-[D-N-(2-hydroxy-5-nitrobenzoyl)-2-phenylglycinamido]-3-(1-methyl-1H-tetrazol-5-ylthiomethyl)-3-cephem-4-carboxylic acid] the value was 0.78 mg/L (≈ 1.24 µM).
In the case of `Cn1nnnc1SCC1=C(C(=O)O)N2C(=O)C(NC(=O)[C@H](NC(=O)c3cc(S(N)(=O)=O)ccc3O)c3ccccc3)C2SC1` (stereo partly drawn) [Example 4, 7-[D-N-(2-hydroxy-5-sulfamoylbenzoyl)-2-phenylglycinamido]-3-(1-methyl-1H-tetrazol-5-ylthiomethyl)-3-cephem-4-carboxylic acid], the MIC worked out at 0.78 mg/L (≈ 1.18 µM).
As for `CC(=O)c1ccc(O)c(C(=O)N[C@@H](C(=O)NC2C(=O)N3C(C(=O)O)=C(CSc4nnnn4C)CSC23)c2ccccc2)c1` (stereo partly drawn) [Example 5, 7-[D-N-(2-hydroxy-5-acetylbenzoyl)-2-phenylglycinamido]-3-(1-methyl-1H-tetrazol-5-ylthiomethyl)-3-cephem-4-carboxylic acid], the MIC came out at 0.78 mg/L (≈ 1.25 µM).
Same read-out and setting: for `Cn1nnnc1SCC1=C(C(=O)O)N2C(=O)C(NC(=O)[C@H](NC(=O)c3cc(C(N)=O)c(Cl)cc3O)c3ccccc3)C2SC1` (stereo partly drawn) [Example 7, 7-[D-N-(2-hydroxy-4-chloro-5-carbamoylbenzoyl)-2-phenylglycinamido]-3-(1-methyl-1H-tetrazol-5-ylthiomethyl)-3-cephem-4-carboxylic acid] the value was 0.78 mg/L (≈ 1.18 µM).
As for `Cn1nnnc1SCC1=C(C(=O)O)N2C(=O)C(NC(=O)[C@H](NC(=O)c3cc(S(N)(=O)=O)c(Cl)cc3O)c3ccccc3)C2SC1` (stereo partly drawn) [Example 8, 7-[D-N-(2-hydroxy-4-chloro-5-sulfamoylbenzoyl)-2-phenylglycinamido]-3-(1-methyl-1H-tetrazol-5-ylthiomethyl)-3-cephem-4-carboxylic acid], the MIC is 0.78 mg/L (≈ 1.12 µM).
On the same count and under the same terms, for `Cc1nnc(SCC2=C(C(=O)O)N3C(=O)C(NC(=O)[C@H](NC(=O)[C@H](O)c4ccccc4)c4ccccc4)C3SC2)s1` (stereo partly drawn) [Example 56, 7-[D-N-(D-mandeloyl)-2-phenylglycinamido]-3-(5-methyl-1,3,4-thiadiazol-2-ylthiomethyl)-3-cephem-4-carboxylic acid] the value was 12.5 mg/L (≈ 20.4 µM); for `Cn1nnnc1SCC1=C(C(=O)O)N2C(=O)C(NC(=O)[C@H](NC(=O)COc3cc(Cl)cc(Cl)c3O)c3ccccc3)C2SC1` (stereo partly drawn) [Example 63, 7-[D-N-{2-(2-hydroxy-3,5-dichlorophenoxy)acetyl}-2-phenylglycinamido]-3-(1-methyl-1H-tetrazol-5-ylthiomethyl)-3-cephem-4-carboxylic acid], 6.25 mg/L (≈ 9.18 µM).
Regarding `CC(=O)OCC1=C(C(=O)O)N2C(=O)[C@@H](NC(=O)[C@H](NC(=O)COc3ccc(Cl)cc3C(=O)c3ccc(NC(=O)CSCC(=O)O)cc3)c3ccccc3)[C@H]2SC1` [Example 69, 7-[D-N-[2-{2-(4-carboxymethylthioacetamidobenzoyl)-4-chlorophenoxy}acetyl]-2-phenylglycinamido]cephalosporanic acid], the MIC was 6.25 mg/L (≈ 7.57 µM).
